Common to all, as to assay: relative viability (nuclei count vs DMSO), 5 days (fraction); higher = more cells survive
Compound in the assay “AZ505 + Pemetrexed”: C1CCC(CC1)N(CCNCCC2=C3C(=C(C=C2)O)NC(=O)CO3)C(=O)CCNCCC4=CC(=C(C=C4)Cl)Cl [AZ505] + Nc1nc2[nH]cc(CCc3ccc(C(=O)N[C@@H](CCC(=O)O)C(=O)O)cc3)c2c(=O)[nH]1 [Pemetrexed] (partner 0.2 µM)
The procedure, abridged:
(§1)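 The day after seeding in 1536-well plates, lung cancer cell lines were treated by pin tool with a single drug, or with a fixed anchor-drug dose together with five library-drug doses (not always all listed) in √10 steps. After 5 days, a combined fix-and-stain solution (final 0.05% Triton X-100, 1% formaldehyde, 1 ug/ml Hoechst) was added. Nuclei counted on 4× images gave relative viability as treated counts over vehicle counts, reported as the median of duplicate plates.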

Compound in the assay “Dactolisib + Lapatinib”: Cn1c(=O)n(-c2ccc(C(C)(C)C#N)cc2)c2c3cc(-c4cnc5ccccc5c4)ccc3ncc21 [Dactolisib] + CS(=O)(=O)CCNCc1ccc(-c2ccc3ncnc(Nc4ccc(OCc5cccc(F)c5)c(Cl)c4)c3c2)o1 [Lapatinib] (partner 2 µM)
In short, it runs like this: as §1

Compound in the assay “AZ505 + Dasatinib”: C1CCC(CC1)N(CCNCCC2=C3C(=C(C=C2)O)NC(=O)CO3)C(=O)CCNCCC4=CC(=C(C=C4)Cl)Cl [AZ505] + Cc1nc(Nc2ncc(C(=O)Nc3c(C)cccc3Cl)s2)cc(N2CCN(CCO)CC2)n1 [Dasatinib] (partner 0.075 µM)
The procedure, abridged: as §1

Compound in the assay “AZ505 + Linsitinib”: C1CCC(CC1)N(CCNCCC2=C3C(=C(C=C2)O)NC(=O)CO3)C(=O)CCNCCC4=CC(=C(C=C4)Cl)Cl [AZ505] + C[C@]1(O)C[C@@H](c2nc(-c3ccc4ccc(-c5ccccc5)nc4c3)c3c(N)nccn32)C1 [Linsitinib] (partner 1 µM)
In short, it runs like this: as §1

For the cell line NCI-H650, the relative viability in the assay with AZ505 + Pemetrexed (first compound 0.08 µM) worked out at 0.86; with AZ505 + Pemetrexed (first compound 0.253 µM), 0.875; in the assay with AZ505 + Pemetrexed (first compound 0.8 µM) it was 1.01; with AZ505 + Pemetrexed (first compound 2.53 µM) it was 1.12; with AZ505 + Pemetrexed (first compound 8 µM), 0.881; with Dactolisib + Lapatinib (first compound 0.002 µM) it was 0.91. Besides, the relative viability with Dactolisib + Lapatinib (first compound 0.006325 µM) is 1; in the assay with Dactolisib + Lapatinib (first compound 0.02 µM), 0.691; with Dactolisib + Lapatinib (first compound 0.06325 µM), 0.55; with Dactolisib + Lapatinib (first compound 0.2 µM) it was 0.452; with AZ505 + Dasatinib (first compound 0.08 µM), 0.425; with AZ505 + Dasatinib (first compound 0.253 µM), 0.408. Also, the relative viability in the assay with AZ505 + Dasatinib (first compound 0.8 µM) stood at 0.447; in the assay with AZ505 + Dasatinib (first compound 2.53 µM) it was 0.547; in the assay with AZ505 + Dasatinib (first compound 8 µM), 0.452; with AZ505 + Linsitinib (first compound 0.08 µM) it was 0.847; in the assay with AZ505 + Linsitinib (first compound 0.253 µM), 0.739; in the assay with AZ505 + Linsitinib (first compound 0.8 µM) it was 0.897. Also, the relative viability came to 1.15 with AZ505 + Linsitinib (first compound 2.53 µM) and 0.921 with AZ505 + Linsitinib (first compound 8 µM).
Consider NCI-H2085, for which the relative viability came to 0.832 in the assay with AZ505 + Pemetrexed (first compound 0.08 µM); 0.758 with AZ505 + Pemetrexed (first compound 0.253 µM); 0.78 in the assay with AZ505 + Pemetrexed (first compound 0.8 µM); 0.835 with AZ505 + Pemetrexed (first compound 2.53 µM); 0.965 with AZ505 + Pemetrexed (first compound 8 µM); 0.798 with Dactolisib + Lapatinib (first compound 0.002 µM). Besides, the relative viability in the assay with Dactolisib + Lapatinib (first compound 0.006325 µM) came out at 0.657; with Dactolisib + Lapatinib (first compound 0.02 µM) it was 0.659; in the assay with Dactolisib + Lapatinib (first compound 0.06325 µM), 0.359; with Dactolisib + Lapatinib (first compound 0.2 µM) it was 0.337; with AZ505 + Dasatinib (first compound 0.08 µM), 0.246; in the assay with AZ505 + Dasatinib (first compound 0.253 µM), 0.242. In addition, the relative viability worked out at 0.234 with AZ505 + Dasatinib (first compound 0.8 µM); 0.252 with AZ505 + Dasatinib (first compound 2.53 µM); 0.237 with AZ505 + Dasatinib (first compound 8 µM); 0.817 with AZ505 + Linsitinib (first compound 0.08 µM); 0.923 with AZ505 + Linsitinib (first compound 0.253 µM); 0.93 with AZ505 + Linsitinib (first compound 0.8 µM). Moreover, the relative viability is 0.918 with AZ505 + Linsitinib (first compound 2.53 µM) and 0.968 with AZ505 + Linsitinib (first compound 8 µM).
For NCI-H1793, the relative viability with AZ505 + Pemetrexed (first compound 0.08 µM) was 0.863; with AZ505 + Pemetrexed (first compound 0.253 µM), 0.756; in the assay with AZ505 + Pemetrexed (first compound 0.8 µM) it was 0.878; with AZ505 + Pemetrexed (first compound 2.53 µM), 0.851; with AZ505 + Pemetrexed (first compound 8 µM), 1.06; in the assay with Dactolisib + Lapatinib (first compound 0.002 µM) it was 0.631. Also, the relative viability with Dactolisib + Lapatinib (first compound 0.006325 µM) is 0.409; with Dactolisib + Lapatinib (first compound 0.02 µM), 0.325; with Dactolisib + Lapatinib (first compound 0.06325 µM) it was 0.195; in the assay with Dactolisib + Lapatinib (first compound 0.2 µM), 0.242; with AZ505 + Dasatinib (first compound 0.08 µM), 0.345; with AZ505 + Dasatinib (first compound 0.253 µM), 0.439. For the same cell line, the relative viability is 0.394 with AZ505 + Dasatinib (first compound 0.8 µM); 0.439 with AZ505 + Dasatinib (first compound 8 µM); 0.766 with AZ505 + Linsitinib (first compound 0.08 µM); 0.769 with AZ505 + Linsitinib (first compound 0.253 µM); 0.932 in the assay with AZ505 + Linsitinib (first compound 0.8 µM); 1.03 with AZ505 + Linsitinib (first compound 2.53 µM). In addition, in the assay with AZ505 + Linsitinib (first compound 8 µM), the relative viability came out at 1.06.
For LC-2-ad, the relative viability came out at 0.279 in the assay with AZ505 + Pemetrexed (first compound 0.08 µM); 0.278 with AZ505 + Pemetrexed (first compound 0.253 µM); 0.294 with AZ505 + Pemetrexed (first compound 0.8 µM); 0.306 with AZ505 + Pemetrexed (first compound 2.53 µM); 0.258 with AZ505 + Pemetrexed (first compound 8 µM); 1.01 with Dactolisib + Lapatinib (first compound 0.002 µM). Moreover, the relative viability with Dactolisib + Lapatinib (first compound 0.02 µM) was 1.06; with Dactolisib + Lapatinib (first compound 0.06325 µM), 0.728; in the assay with Dactolisib + Lapatinib (first compound 0.2 µM) it was 0.437; with AZ505 + Dasatinib (first compound 0.08 µM), 0.578; with AZ505 + Dasatinib (first compound 0.253 µM), 0.564; with AZ505 + Dasatinib (first compound 0.8 µM), 0.558. Also, the relative viability in the assay with AZ505 + Dasatinib (first compound 2.53 µM) came out at 0.604; with AZ505 + Dasatinib (first compound 8 µM), 0.665; in the assay with AZ505 + Linsitinib (first compound 0.08 µM) it was 0.819; with AZ505 + Linsitinib (first compound 0.253 µM) it was 0.901; with AZ505 + Linsitinib (first compound 0.8 µM), 0.844; with AZ505 + Linsitinib (first compound 2.53 µM) it was 0.883. Moreover, in the assay with AZ505 + Linsitinib (first compound 8 µM), the relative viability stood at 0.845.
COR-L 105: the relative viability in the assay with AZ505 + Pemetrexed (first compound 0.08 µM) stood at 0.979; with AZ505 + Pemetrexed (first compound 0.253 µM), 1.05; in the assay with AZ505 + Pemetrexed (first compound 0.8 µM) it was 1.06; in the assay with AZ505 + Pemetrexed (first compound 2.53 µM) it was 1.1; with AZ505 + Pemetrexed (first compound 8 µM) it was 1.14; with Dactolisib + Lapatinib (first compound 0.002 µM), 0.311. For the same cell line, the relative viability in the assay with Dactolisib + Lapatinib (first compound 0.006325 µM) was determined as 0.355; with Dactolisib + Lapatinib (first compound 0.02 µM), 0.363; with Dactolisib + Lapatinib (first compound 0.06325 µM), 0.267; in the assay with Dactolisib + Lapatinib (first compound 0.2 µM), 0.35; with AZ505 + Dasatinib (first compound 0.08 µM) it was 0.383; with AZ505 + Dasatinib (first compound 0.253 µM), 0.352. Besides, the relative viability with AZ505 + Dasatinib (first compound 0.8 µM) turned out to be 0.318; with AZ505 + Dasatinib (first compound 2.53 µM), 0.342; with AZ505 + Dasatinib (first compound 8 µM), 0.367; with AZ505 + Linsitinib (first compound 0.08 µM), 0.703; in the assay with AZ505 + Linsitinib (first compound 0.253 µM) it was 1.05; with AZ505 + Linsitinib (first compound 0.8 µM), 0.761. Besides, the relative viability with AZ505 + Linsitinib (first compound 2.53 µM) stood at 0.779; in the assay with AZ505 + Linsitinib (first compound 8 µM), 1.01.
As to NCI-H1355, the relative viability is 0.953 with AZ505 + Pemetrexed (first compound 0.08 µM); 1 with AZ505 + Pemetrexed (first compound 0.253 µM); 1.03 with AZ505 + Pemetrexed (first compound 0.8 µM); 0.996 in the assay with AZ505 + Pemetrexed (first compound 2.53 µM); 1 with AZ505 + Pemetrexed (first compound 8 µM); 1.02 with Dactolisib + Lapatinib (first compound 0.002 µM). The relative viability was found to be 0.879 in the assay with Dactolisib + Lapatinib (first compound 0.006325 µM); 0.939 with Dactolisib + Lapatinib (first compound 0.02 µM); 0.521 in the assay with Dactolisib + Lapatinib (first compound 0.06325 µM); 0.388 with Dactolisib + Lapatinib (first compound 0.2 µM); 0.695 with AZ505 + Dasatinib (first compound 0.08 µM); 0.674 with AZ505 + Dasatinib (first compound 0.253 µM). Also, the relative viability with AZ505 + Dasatinib (first compound 0.8 µM) is 0.603; in the assay with AZ505 + Dasatinib (first compound 2.53 µM) it was 0.702; in the assay with AZ505 + Dasatinib (first compound 8 µM), 0.748; with AZ505 + Linsitinib (first compound 0.08 µM), 0.787; in the assay with AZ505 + Linsitinib (first compound 0.253 µM) it was 0.783; with AZ505 + Linsitinib (first compound 0.8 µM), 0.81. Besides, the relative viability with AZ505 + Linsitinib (first compound 2.53 µM) was 0.684; in the assay with AZ505 + Linsitinib (first compound 8 µM) it was 0.826.
H3255: the relative viability with AZ505 + Pemetrexed (first compound 0.08 µM) came out at 0.521; with AZ505 + Pemetrexed (first compound 0.253 µM) it was 0.556; in the assay with AZ505 + Pemetrexed (first compound 0.8 µM) it was 0.602; with AZ505 + Pemetrexed (first compound 2.53 µM), 0.571; in the assay with AZ505 + Pemetrexed (first compound 8 µM), 0.616; with Dactolisib + Lapatinib (first compound 0.002 µM), 0.329. In addition, the relative viability amounted to 0.257 with Dactolisib + Lapatinib (first compound 0.006325 µM); 0.226 in the assay with Dactolisib + Lapatinib (first compound 0.02 µM); 0.237 with Dactolisib + Lapatinib (first compound 0.06325 µM); 0.225 in the assay with Dactolisib + Lapatinib (first compound 0.2 µM); 0.368 with AZ505 + Dasatinib (first compound 0.08 µM); 0.316 in the assay with AZ505 + Dasatinib (first compound 0.253 µM). Besides, the relative viability is 0.369 in the assay with AZ505 + Dasatinib (first compound 0.8 µM); 0.388 in the assay with AZ505 + Dasatinib (first compound 2.53 µM); 0.483 with AZ505 + Dasatinib (first compound 8 µM); 0.836 with AZ505 + Linsitinib (first compound 0.08 µM); 1 with AZ505 + Linsitinib (first compound 0.253 µM); 0.918 with AZ505 + Linsitinib (first compound 0.8 µM). Besides, the figures for the relative viability in the assay with AZ505 + Linsitinib (first compound 2.53 µM) and with AZ505 + Linsitinib (first compound 8 µM) were 0.983 and 0.929, respectively.

For the origin of these results see the supplement of paper PMC10307832.
